Results reported in patent publication US5206229A, “Vitamin D analogues” (Leo Pharmaceutical Products LTD, priority 1988, dated 1993).
One block for each compound: values may come before it.

Assays:
[1] = in vivo; cited from earlier work
differentiation of cells = conditions: cited from earlier work
interleukins = conditions: cited from earlier work
cell proliferation [2] = conditions: cited from earlier work
HL-60 cells = conditions: in vitro; more potent than 1,25(OH)2 D3; cited from earlier work
[3] = in vivo; compared with 1,25(OH)2 D3; cited from earlier work
rat intestinal receptor = conditions: compared with 1,25(OH)2 D3; cited from earlier work
[4] = system: receptor in a human myeloid leukemia cell line (HL-60); conditions: compared with 1,25(OH)2 D3; cited from earlier work
[5] = system: chicken intestinal receptor; conditions: compared with 1,25(OH)2 D3; cited from earlier work
cell differentiation [6] = conditions: more potent than 1,25(OH)2 D3; cited from earlier work
[7] = in vivo; cited from earlier work; remark: listed apart in the source
[8] = system: human monocytic tumour cell line; assay: inhibition of proliferation of tumour cells; type: cell-based; conditions: compared with 1,25(OH)2 D3
[9] = system: human monocytic tumour cell line; assay: induction of cell differentiation in a human monocytic tumour cell line; type: cell-based; conditions: compared with 1,25(OH)2 D3
[10] = calcium metabolism in rats (hypercalciuria, hypercalcemia)
[11] = cited from earlier work
cell proliferation [12] = conditions: cited from earlier work; remark: listed apart in the source
[13] = system: intestinal vitamin D receptor; conditions: in vitro; compared with 1,25(OH)2 D3; cited from earlier work
cell differentiation [14] = conditions: cited from earlier work

Structure (SMILES): C=C1/C(=C\C=C2/CCC[C@]3(C)[C@@H]([C@H](C)CCCC(C)(C)O)CC[C@@H]23)C[C@@H](O)C[C@@H]1O [1,25(OH)2 D3, 1α,25-dihydroxy-vitamin D3]
effect on calcium metabolism [1]: well known potent effect | stimulation of differentiation of cells (differentiation of cells): able to stimulate the differentiation of cells | effect on interleukins (interleukins): influences the effects and/or production of interleukins | inhibition of excessive cell proliferation (cell proliferation [2]): inhibit excessive cell proliferation

Structure (SMILES): C=C1/C(=C\C=C2/CCC[C@]3(C)[C@@H]([C@H](C)CCCCC(C)(C)O)CC[C@@H]23)C[C@@H](O)C[C@@H]1O [24-Homo-1,25-dihydroxyvitamin D3]
potency in inducing differentiation of HL-60 cells relative to 1,25(OH)2 D3 (HL-60 cells): 10 fold | potency in calcium metabolism assessments [3]: significantly less potent | binding affinity to the rat intestinal receptor (rat intestinal receptor): the same binding affinity as 1,25(OH)2 D3 | binding affinity to the receptor in HL-60 [4]: the same binding affinity as 1,25(OH)2 D3 | binding affinity to the chicken intestinal receptor [5]: the same binding affinity as 1,25(OH)2 D3

Structure (SMILES): C=C1/C(=C\C=C2/CCC[C@]3(C)[C@@H]([C@H](C)CCCC(O)(CCC)CCC)CC[C@@H]23)C[C@@H](O)C[C@@H]1O [26,27-diethyl-1α,25-dihydroxyvitamin D3]
potency in inducing cell differentiation relative to 1,25(OH)2 D3 (cell differentiation [6]): 10 fold | vitamin D activity (calcium metabolism effects) [7]: almost no vitamin D activity

Structure (SMILES): C=C1/C(=C\C=C2/CCC[C@]3(C)[C@@H]([C@H](C)CCCC(C)(O)CC)CC[C@@H]23)C[C@@H](O)C[C@@H]1O (some centres unmarked) [26-homo-1,25-dihydroxyvitamin D3]
potency in inducing differentiation of HL-60 cells relative to 1,25(OH)2 D3 (HL-60 cells): 10 fold | potency in calcium metabolism assessments [3]: more potent | binding affinity to the rat intestinal receptor (rat intestinal receptor): the same binding affinity as 1,25(OH)2 D3 | binding affinity to the receptor in HL-60 [4]: the same binding affinity as 1,25(OH)2 D3 | binding affinity to the chicken intestinal receptor [5]: the same binding affinity as 1,25(OH)2 D3

in vivo potency on calcium metabolism [10]: lower in vivo potency
Structure (SMILES): C=C1/C(=C\C=C2/CCC[C@]3(C)[C@@H]([C@H](C)CCCCCC(C)(C)O)CC[C@@H]23)C[C@@H](O)C[C@@H]1O [Compound 36, 1(S),3(R)-Dihydroxy-20(R)-(6-hydroxy-6-methyl-1-heptyl)-9,10-secopregna-5(Z),7(E),10(19)-triene]
concentration effective in inhibiting proliferation [8]: the same low concentrations as 1,25(OH)2 D3 | concentration needed to induce cell differentiation [9]: the same low concentrations as 1,25(OH)2 D3

in vivo potency on calcium metabolism [10]: lower in vivo potency
Structure (SMILES): C=C1/C(=C\C=C2/CCC[C@]3(C)[C@@H]([C@H](C)CCCCCCC(C)(C)O)CC[C@@H]23)C[C@@H](O)C[C@@H]1O [Compound 37, 1(S),3(R)-Dihydroxy-20(R)-(7-hydroxy-7-methyl-1-octyl)-9,10-secopregna-5(Z),7(E),10(19)-triene]
concentration effective in inhibiting proliferation [8]: the same low concentrations as 1,25(OH)2 D3 | concentration needed to induce cell differentiation [9]: the same low concentrations as 1,25(OH)2 D3

in vivo potency on calcium metabolism [10]: lower in vivo potency
Structure (SMILES): C=C1/C(=C\C=C2/CCC[C@]3(C)[C@@H]([C@H](C)/C=C/CCCCC(C)(C)O)CC[C@@H]23)C[C@@H](O)C[C@@H]1O [Compound 38]
concentration effective in inhibiting proliferation [8]: the same low concentrations as 1,25(OH)2 D3 | concentration needed to induce cell differentiation [9]: the same low concentrations as 1,25(OH)2 D3

in vivo potency on calcium metabolism [10]: lower in vivo potency
Structure (SMILES): C=C1/C(=C\C=C2/CCC[C@]3(C)[C@@H]([C@H](C)/C=C/CCCC(C)(C)O)CC[C@@H]23)C[C@@H](O)C[C@@H]1O [Compound 54]
concentration effective in inhibiting proliferation [8]: the same low concentrations as 1,25(OH)2 D3 | concentration needed to induce cell differentiation [9]: the same low concentrations as 1,25(OH)2 D3

Structure (SMILES): C=C1/C(=C\C=C2/CCC[C@]3(C)[C@@H]([C@H](C)/C=C/[C@@H](O)C4CC4)CC[C@@H]23)C[C@@H](O)C[C@@H]1O [MC 903]
activity on calcium metabolism in vivo [11]: only moderate activity | inhibition of cell proliferation (cell proliferation [12]): inhibitor of cell proliferation | binding to the intestinal vitamin D receptor [13]: binds equally well as 1,25(OH)2 D3 | induction of cell differentiation (cell differentiation [14]): potent inducer of cell differentiation
